Test results from patent US8796285B2, “Pyrazolo [1,5-a]-pyrimidones derivatives and pharmaceutical compositions and uses thereof” (Hebei Medical University, priority 2009, dated 2014).
Read-outs that look alike come from different tables or passages of the source.

Key:
[1] = target: KCNQ4 potassium ion channel (Homo sapiens, UniProt P56696); assay: High throughput atomic absorption Rb+ efflux testing, CHO cell of KCNQ4 channel; type: cell-based; settings: for EC50: CHO cell of KCNQ4 channel
Excerpt: Atomic absorption Rb^+ efflux testing is a fast and safe selection method for high throughput potassium channel moderator, and is characterized in that the activity of the ion channel and the control effect of the opener are directly reflected. Rb and K have similar atomic size, and potassium ion channel is permeable to Rb^+. By testing concentration of the Rb^+ efflux, a status of the potassium channel, which is an open status or a close status, can be determined. Rb has specific absorption at 780 nm, and Rb^+ concentration can be determined by atomic absorption spectroscopy. Accordingly, analysis method of atomic absorption spectroscopy can be used to select the opener/inhibitor of potassium channel through high throughput of Rb^+ efflux.
Stable cell transfer of CHO cell of KCNQ4 channel at log phase and inoculate in 96-well culture plate at a density of 2×10^4 unit/well. Each concentration has a triplicate-hole setting, and a control setting with solvent of corresponding concentration. Allow growth against the well-wall overnight, then discard the culture medium, add 200 μl loading buffer which contains RbCl, and culture in 5% CO2 at 37° C. for 3 hours. Then remove the loading buffer and wash with wash buffer for 3 times. Screen for the KCNQ opener, dilute testing compound with depolarization buffer, add 200 μl of the above solvent into the cell and allow reaction for 10 minutes. Incubate for 10 minutes, then carefully draw 200 μl supernatant to another 96-well culture plate, use ICR8000 atomic absorption spectrometry to determine the Rb^+ atomic absorption at 780 nm. Based on the equation Fsupern=(Rb_supern/cpd/Rb_supern/d)×100, calculate the corresponding rate of efflux.

KCNQ2/Q3 channel = KCNQ2/Q3 channel (Homo sapiens, UniProt O43525+O43526); assay: Patch-clamp electrophysiology testing, CHO cell of KCNQ2/Q3 channel; type: cell-based; settings: clamping voltage -80 mV, depolarized to -40 mV, FIG. 5a
Excerpt: (2) Testing method: Culture of ovary cell of Chinese hamster (CHO, Chinese Hamster Overy): steadily transfer the CHO cell culture of KCNQ2/Q3 channel into a composition containing 10% fetal bovine serum, 100 U/ml penicillin and DMEM culture solution of streptomycin, and allow digestion passage of trypsin. Spread the cell on a 12 mm round-shaped coverslip and culture on a 24-well cell culture plate.
Record membrane current using patch-clamp technique: The patch-clamp amplifier is HEKA-EPC10. The electrode solution uses amphotericin B (final concentration of 0.1˜0.2 mg/ml) for perforated patch clamp recording. After polishing the microelectrodes, inject the electrode solution and control the to 2˜4MΩ. The electrode solution used for recording CHO cell are (mM): KCl 160, HEPES 5, MgCl2 3, CaCl2 1, EGTA 2, with pH adjusted to 7.4 with KOH; Extracellular electrode composition are (mM): NaCl 160, KCl 2.5, HEPES 10, glucose 8, MgCl2 1, CaCl2 5. After the cell membrane and microelectrodes form a high resistance seal, clamp at −80 mV, wait 5-10 min and record the readings according to different activation procedures.

male mice [2] = assay: The maximum electric shock experiment; type: in vivo; settings: Mus musculus, corneal electrode 26 mA 0.4 second, forced feeding 10, 25, 50 mg/kg, read-out: ED50 anticonvulsant effect
Excerpt: “The maximum electric shock” experiment: The experiment uses electrical method to measure non-specific CNS-induced seizures.
Pharmaceutical composition used: the compound number 21 for the testing group, phenyloin for positive control group.
Experimental method: Apply corneal electrode in male mice of each group, apply 26 mA square wave current for 0.4 second, and forced feeding the pharmaceutical composition after inducing convulsion which is characterized by hindlimb tonic extension (Wlaz et al., Epilepsy Research 1998, 30, 219-229). Dosages for the testing group are: 10 mg/kg (body weight) per administration, 25 mg/kg (body weight) per administration, and 50 mg/kg (body weight) per administration respectively. For control group, dosage is 25 mg/kg (body weight) per administration.

KCNQ2/3 = target: T1, KCNQ2/3 (Homo sapiens, UniProt O43525+O43526); assay: High throughput atomic absorption Rb+ efflux testing, KCNQ2/3; type: cell-based; settings: Rb+ efflux by atomic absorption
T1 construct: expressed in transfected cells

rat = assay: Amygdala kindling experiment; type: in vivo; settings: vs pre-administration, p<0.01 vs control group
Excerpt: This experiment is used to measure the disease progress, when further stimulation is applied, the seizure level of the animal in this model will be increased as in the situation of normal animal.
Pharmaceutical composition used: suspended solution of sodium carboxymethyl cellulose containing the compound number 21 for the testing group, suspended solution of sodium carboxymethyl cellulose for the positive control group, with concentration equal to the suspended solution of the testing group.
Testing method: perform surgery to implant tri-polar electrode into dorsolateral amygdale of rat. After surgery, allow the animal to recover, then administer testing compound or pharmaceutical solvent agent of different dosages to rat of different groups. The animal is treated with electrical stimulation at a value which is +25 μA of the initial discharge threshold on a daily basis for 3-5 weeks, and record each seizure incidence in which the level of seizure, the duration of the seizure, and electrical duration after discharge are recorded (Racine. Electroencephalography and Clinical Neurophysiology 1972, 32, 281-294). Dosage level is the same as that of exemplary embodiment 11.

male mice [3] = assay: Pilocarpine-induced seizures experiment; type: in vivo; settings: Mus musculus, ip, pilocarpine 250 mg/kg i.p., compound by intraperitoneal injection 1, 5, 10 mg/kg, read-out: ED50 anti-epilepsy effect
Description: Pilocarpine-induced seizure is, in general, difficult to treat by using the existing anti-epileptic drug, so it belongs to “drug-resistance epilepsy” model.
Pharmaceutical composition used: the compound number 24 for the testing group, phenyloin for positive control group.
Experimental method: Inject 250 mg/kg pilocarpine into the male mice of each group by intraperitoneal injection, induce pilocarpine-induced seizure, observe walking abnormality caused by seizures activities in 30 minutes (Starr et al, Pharmacology Biochemistry and Behavior 1993, 45, 321-325). Apply intraperitoneal injection. Dosages for the testing group are: 1 mg/kg (body weight) per administration, 5 mg/kg (body weight) per administration, and 10 mg/kg (body weight) per administration respectively. For control group, dosage is 50 mg/kg (body weight) per administration.

| Compound | EC50 ([1]; Rb+ efflux by atomic absorption, read-out: KCNQ4) [nM] | activation of KCNQ2/3 channel current (KCNQ2/Q3 channel) | ED50 (male mice [2]) [mg/kg] | EC50 (KCNQ2/3) [nM] | seizure level (rat) | time period after discharge process of amygdala (rat) | activating effect on the CHO cell of the KCNQ4 potassium ion channel ([1]; Rb+ efflux at 0.03, 0.1, 0.6, 1, 3 and 10 μM, FIG. 4) | EC50 ([1]; Rb+ efflux, 0.03-10 μM, FIG. 4, read-out: EC50) [nM] | ED50 (male mice [3]) [mg/kg] |
| --- | --- | --- | --- | --- | --- | --- | --- | --- | --- |
| O=c1cc(CCl)[nH]c2c(-c3ccccc3)c(C(F)(F)F)nn12 [Compound 21, 5-chloromethyl-3-phenyl-2-trifluoromethylpyrazolo[1,5-a]pyrimidin-7(4H)-one] | 23900 ± 430 | can activate the KCNQ2/3 channel current significantly | 12.2 ± 0.08 | 3610 ± 6020 | increased in the seizure level | shorten time period after discharge process of amygdale |  |  |  |
| O=c1cc(-c2cc(F)c(Cl)nc2Cl)[nH]c2c(-c3ccccc3)c(C(F)(F)F)nn12 [Compound 24] |  |  |  | 78 ± 20 |  |  | dose-dependent activating effect | 210 ± 80 | 5.1 ± 0.05 |
